Reference: patent EP4177246A1, “FUSED OXAZEPINES AS INHIBITORS OF PEROXIREDOXINS” (Centro Atlántico del Medicamento, SA, priority 2021, dated 2023)

Tests used:
[1] = system: PANC-1; test: MTT cell viability assay, PANC-1 cells; format: cell-based; conditions: Homo sapiens, 48 h drug exposure
Protocol: PANC-1 [American Type Culture Collection (ATCC) reference number CRL-1469]. This a human cancer cell line derived from the pancreas of a person.
(§1) Cell viability was assayed by measuring the mitochondrial reduction of the tetrazolium salt 3-(4,5-methyltiazol-2yl)-2,5diphenyl-tetrazolium bromide] (MTT) (Applichen; A2231,0010) [Mosmann T. J Immunol Methods. 1983 16;65(1-2):55-63 (ref. 36); Chuan Y-C et al 2010. Oncogene. 29 (10), 1531-1542 (ref. 37)]. Cells were seeded in 96-well plates in medium (either RPMI, DMEM or McCoys depending on the recommendations from the ATCC) supplemented with 10% FBS (Lonza Cat. N°: 14-502F), 2mM L-Glut (Lonza Cat. N°: BE17-605E) and 100U/ml PEST (Lonza Cat. N°: DE17-605E) at a cell density of 1000-5000 cells/well (96 well plate). Cells were seeded at a density according to their exponential growth phase (normally 1000 to 5000/well). The cells were cultured at 37 °C in the dark in air containing 5% CO2. After 24h either vehicle (0.05% DMSO) or drug were added to culture medium at the indicated concentrations (10 to 0,01microM). After another 48 h, MTT (0.3 mg/ml) was added to cells, followed by incubation for 2-4h at 37 °C in the dark. The medium was then removed and the precipitated formazan was solubilized by the addition of DMSO (200 µL).
(§2) The optical density was measured at 595 nm with the iMark Microplate Reader (BioRad, USA). Data was expressed as percent growth above the level in controls and the results in figures were plotted as means ± SEM of each test point from 3 replicates.
(§3) Statistical analysis. The concentration of drug that provokes 50% reduction of cell viability (IC50) was determined by using non-linear regression analysis and data were fitted to a log concentration vs normalized response curve in GraphPad software v5 (San Diego, CA).

[2] = system: DU-145; test: MTT cell viability assay, DU-145 cells; format: cell-based; conditions: Homo sapiens, 48 h drug exposure
Protocol: DU-145 [American Type Culture Collection (ATCC) reference number HTB-81]. This a human prostate cancer cell line derived from a metastatic site (brain) of a person.
as §1, §2, §3

[3] = system: HEL 92.1.7; test: MTT cell viability assay, HEL cells; format: cell-based; conditions: Homo sapiens, 48 h drug exposure
Protocol: HEL 92.1.7 [American Type Culture Collection (ATCC) reference number TIB-180]. This a human cancer cell line derived from the bone marrow of a person with erythroleukemia, which is a form of AML.
as §1, §2, §3

[4] = system: MCF-7; test: MTT cell viability assay, MCF-7 cells; format: cell-based; conditions: Homo sapiens, MCF7, 48 h drug exposure
Protocol: as §1, §2, §3

[5] = system: K562; test: MTT cell viability assay, K562 cells; format: cell-based; conditions: Homo sapiens, 48 h drug exposure
Protocol: K562 [American Type Culture Collection (ATCC) reference number CCL-243]. This a human cancer cell line derived from the bone marrow of a person with CML.
as §1, §2, §3

[6] = system: MDA-MB-231; test: MTT cell viability assay, MDA-MB-231 cells; format: cell-based, human; conditions: Homo sapiens, 48 h drug exposure
Protocol: MDA-MB-231 [American Type Culture Collection (ATCC) reference number HTB-26]. This a human breast cancer cell line derived from a metastatic site from a person.
as §1, §2, §3

Which IC50 [1] does the source give for `N#Cc1ccc(N2Cc3ccccc3OC3=C2C(=O)c2ccccc2C3=O)cc1` [Compound 2, 4-(6,11-dioxo-6,11-dihydrobenzo[f]naphtho[2,3-b][1,4]oxazepin-12(13H)-yl)benzonitrile] here?
The IC50 was 5.6 µM.

And the IC50 [2]?
Its IC50 is over 10 µM.

What about the IC50 [3] of the same compound?
Its IC50 is 0.35 µM.

And the IC50 [4]?
Its IC50 is 4.22 µM.

And the IC50 [5]?
The IC50 was 0.57 µM.

What about the IC50 [6] of the same compound?
The IC50 was 4.02 µM.

Which results are given for `N#Cc1ccc(N2Cc3ccccc3OC3=C2C(=O)c2c(O)ccc(O)c2C3=O)cc1` [Compound 8, 4-(7,10-dihydroxy-6,11-dioxobenzo[f]naphtho[2,3-b][1,4]oxazepin-12(6H,11H,13H)-yl)benzonitrile]?
IC50 [1]: 0.32 µM; IC50 [2]: 6.04 µM; IC50 [3]: 0.1 µM; IC50 [4]: 2.59 µM; IC50 [5]: 0.23 µM; IC50 [6]: 0.36 µM

With `NS(=O)(=O)c1ccc(N2Cc3cc(F)ccc3OC3=C2C(=O)c2c(O)ccc(O)c2C3=O)cc1` [Compound 23] as the compound, how does the IC50 [1] read?
Its IC50 is 0.57 µM.

What about the IC50 [2] of the same compound?
Its IC50 is 8.16 µM.

What about the IC50 [4] of the same compound?
The IC50 was 3.23 µM.

What about the IC50 [5] of the same compound?
The IC50 was 0.54 µM.

And the IC50 [6]?
The IC50 was 2.54 µM.

Which results are given for `COc1cccc2c1OC1=C(C(=O)c3c(O)ccc(O)c3C1=O)N(c1ccc(C#N)cc1)C2` [Compound 26]?
IC50 [1]: 0.47 µM; IC50 [2]: 7.35 µM; IC50 [4]: 3.17 µM; IC50 [5]: 0.13 µM; IC50 [6]: 0.39 µM

With `NS(=O)(=O)c1ccc(N2Cc3ccccc3OC3=C2C(=O)c2c(O)ccc(O)c2C3=O)cc1` [Compound 40, 4-(7,10-dihydroxy-6,11-dioxo-6,11-dihydrobenzo[f]naphtho[2,3-b][1,4]oxazepin-12(13H)-yl)benzenesulfonamide] as the compound, how does the IC50 [1] read?
The IC50 was 0.63 µM.

And the IC50 [2]?
The IC50 was 6.13 µM.

And the IC50 [3]?
Its IC50 is 0.21 µM.

And the IC50 [4]?
The IC50 was 2.52 µM.

And the IC50 [5]?
The IC50 was 0.59 µM.

And the IC50 [6]?
Its IC50 is 1.96 µM.

How did the IC50 [1] turn out when `NC(=O)c1ccc(N2Cc3cc(Cl)ccc3OC3=C2C(=O)c2c(O)ccc(O)c2C3=O)cc1` [Compound 41] was run?
Its IC50 is 0.39 µM.

And the IC50 [2]?
The IC50 was 3.74 µM.

What about the IC50 [4] of the same compound?
Its IC50 is 1.53 µM.

And the IC50 [5]?
The IC50 was 0.22 µM.

What about the IC50 [6] of the same compound?
Its IC50 is 0.98 µM.

For `NC(=O)c1cccc(N2Cc3ccccc3OC3=C2C(=O)c2c(O)ccc(O)c2C3=O)c1` [Compound 54, 3-(7,10-dihydroxy-6,11-dioxo-6,11-dihydrobenzo[f]naphtho[2,3-b][1,4]oxazepin-12(13H)-yl)benzamide], which IC50 [1] is on record?
Its IC50 is 0.38 µM.

What about the IC50 [2] of the same compound?
The IC50 was 3.41 µM.

What about the IC50 [3] of the same compound?
Its IC50 is 0.09 µM.

What about the IC50 [4] of the same compound?
Its IC50 is 1.28 µM.

What about the IC50 [5] of the same compound?
Its IC50 is 0.07 µM.

And the IC50 [6]?
The IC50 was 0.19 µM.

What does the source list for `O=C1C2=C(C(=O)c3c(O)ccc(O)c31)N(c1ccc(N3CCOCC3)nc1)Cc1ccccc1O2` [Compound 59]?
IC50 [1]: 0.28 µM; IC50 [2]: 0.54 µM; IC50 [3]: 0.06 µM; IC50 [4]: 0.72 µM; IC50 [5]: 0.05 µM; IC50 [6]: 0.21 µM

With `CN(C)c1ccc(N2Cc3ccccc3OC3=C2C(=O)c2c(O)ccc(O)c2C3=O)cn1` [Compound 62, 12-(6-(dimethylamino)pyridin-3-yl)-7,10-dihydroxy-12,13-dihydrobenzo[f]naphtho[2,3-b][1,4]oxazepine-6,11-dione] as the compound, how does the IC50 [1] read?
The IC50 was 1.55 µM.

What about the IC50 [2] of the same compound?
The IC50 was 1.32 µM.

What about the IC50 [3] of the same compound?
Its IC50 is 0.07 µM.

And the IC50 [4]?
The IC50 was 3 µM.

And the IC50 [5]?
Its IC50 is 0.1 µM.

What about the IC50 [6] of the same compound?
The IC50 was 0.27 µM.

Which results are given for `CN1CCN(c2ccc(N3Cc4ccccc4OC4=C3C(=O)c3c(O)ccc(O)c3C4=O)cn2)CC1` [Compound 81, 7,10-dihydroxy-12-(6-(4-methylpiperazin-1-yl)pyridin-3-yl)-12,13-dihydrobenzo[f]naphtho[2,3-b][1,4]oxazepine-6,11-dione]?
IC50 [1]: 0.26 µM; IC50 [2]: 0.82 µM; IC50 [3]: 0.05 µM; IC50 [4]: 0.91 µM; IC50 [5]: 0.02 µM; IC50 [6]: 0.32 µM

With `CN(C)CCNc1ccc(N2Cc3ccccc3OC3=C2C(=O)c2c(O)ccc(O)c2C3=O)cn1` [Compound 97, 12-(6-((2-(dimethylamino)ethyl)amino)pyridin-3-yl)-7,10-dihydroxy-12,13-dihydrobenzo[f]naphtho[2,3-b][1,4]oxazepine-6,11-dione] as the compound, how does the IC50 [1] read?
Its IC50 is 0.42 µM.

And the IC50 [2]?
Its IC50 is 0.68 µM.

And the IC50 [4]?
The IC50 was 0.79 µM.

What about the IC50 [5] of the same compound?
Its IC50 is 0.44 µM.

And the IC50 [6]?
Its IC50 is 0.35 µM.
